# Measurements from PubChem BioAssay (NCI).
#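 These data come from cells grown in 96-well plates and exposed to compound for 48 hours at five concentrations. The concentration for 50% growth inhibition is given as GI50. TGI is the concentration that stops growth completely.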
# Columns and labels:
# Experiment in all cases: growth of human tumour cells (NCI), 48 h
# NCI-H460 lung = test system: NCI-H460 lung
# RPMI-8226 leukemia = test system: RPMI-8226 leukemia
# HOP-92 NSCLC = test system: HOP-92 NSCLC
# K-562 leukemia = test system: K-562 leukemia
# UO-31 renal = test system: UO-31 renal
# A498 renal = test system: A498 renal
# OVCAR-4 ovarian = test system: OVCAR-4 ovarian
# HOP-62 NSCLC = test system: HOP-62 NSCLC
# SK-MEL-2 melanoma = test system: SK-MEL-2 melanoma
# ACHN renal = test system: ACHN renal
# RXF 393 renal = test system: RXF 393 renal
# M14 melanoma = test system: M14 melanoma
# SK-MEL-5 melanoma = test system: SK-MEL-5 melanoma
# DU-145 prostate = test system: DU-145 prostate
# KM12 colon = test system: KM12 colon
# SK-OV-3 ovarian = test system: SK-OV-3 ovarian
# NCI-H226 lung = test system: NCI-H226 lung
# SK-MEL-28 melanoma = test system: SK-MEL-28 melanoma
# SF-539 CNS = test system: SF-539 CNS
# A549 NSCLC = test system: A549 NSCLC
# U251 CNS = test system: U251 CNS
# MOLT-4 leukemia = test system: MOLT-4 leukemia
# SN12C renal = test system: SN12C renal
# NCI-H522 lung = test system: NCI-H522 lung
# CCRF-CEM leukemia = test system: CCRF-CEM leukemia
# SF-268 CNS = test system: SF-268 CNS
# NCI/ADR-RES ovarian = test system: NCI/ADR-RES ovarian
# MALME-3M melanoma = test system: MALME-3M melanoma
# HT29 colon = test system: HT29 colon
# SNB-75 CNS = test system: SNB-75 CNS
# MDA-MB-435 = test system: MDA-MB-435
# OVCAR-3 ovarian = test system: OVCAR-3 ovarian
# HCT-116 colon = test system: HCT-116 colon
# SF-295 CNS = test system: SF-295 CNS
# COLO 205 colon = test system: COLO 205 colon
# IGROV1 ovarian = test system: IGROV1 ovarian
# HCT-15 colon = test system: HCT-15 colon
# LOX IMVI melanoma = test system: LOX IMVI melanoma
# EKVX NSCLC = test system: EKVX NSCLC
# OVCAR-5 ovarian = test system: OVCAR-5 ovarian
# MCF7 breast = test system: MCF7 breast
# HCC-2998 colon = test system: HCC-2998 colon
# HL-60(TB) leukemia = test system: HL-60(TB) leukemia
# SR leukemia = test system: SR leukemia
# PC-3 prostate = test system: PC-3 prostate
# UACC-257 melanoma = test system: UACC-257 melanoma
# HS 578T breast = test system: HS 578T breast
# 786-0 renal = test system: 786-0 renal
# MDA-MB-231 breast = test system: MDA-MB-231 breast
# SW-620 colon = test system: SW-620 colon
# T-47D breast = test system: T-47D breast
# BT-549 breast = test system: BT-549 breast
# CAKI-1 renal = test system: CAKI-1 renal
# TK-10 renal = test system: TK-10 renal
# OVCAR-8 ovarian = test system: OVCAR-8 ovarian
# UACC-62 melanoma = test system: UACC-62 melanoma
# SNB-19 CNS = test system: SNB-19 CNS
compound,measurement,setting,value
Cc1cc2nc3c4cc(Cl)ccc4n(CC(=S)NCCN(C)C)c3nc2cc1C,GI50,NCI-H460 lung,1.81 µM
same,TGI,NCI-H460 lung,3.35 µM
same,GI50,RPMI-8226 leukemia,2.75 µM
same,TGI,RPMI-8226 leukemia,7.49 µM
same,GI50,HOP-92 NSCLC,1.79 µM
same,TGI,HOP-92 NSCLC,8.06 µM
same,GI50,K-562 leukemia,2.07 µM
same,TGI,K-562 leukemia,5.21 µM
same,GI50,UO-31 renal,1.07 µM
same,TGI,UO-31 renal,2.53 µM
same,GI50,A498 renal,17.1 µM
same,TGI,A498 renal,31.3 µM
same,GI50,OVCAR-4 ovarian,2.81 µM
same,TGI,OVCAR-4 ovarian,10.2 µM
same,GI50,HOP-62 NSCLC,6.68 µM
same,TGI,HOP-62 NSCLC,21.6 µM
same,GI50,SK-MEL-2 melanoma,14.2 µM
same,TGI,SK-MEL-2 melanoma,27.8 µM
same,GI50,ACHN renal,1.6 µM
same,TGI,ACHN renal,2.95 µM
same,GI50,RXF 393 renal,3.56 µM
same,TGI,RXF 393 renal,14.4 µM
same,GI50,M14 melanoma,1.64 µM
same,TGI,M14 melanoma,3.12 µM
same,GI50,SK-MEL-5 melanoma,4.09 µM
same,TGI,SK-MEL-5 melanoma,14 µM
same,GI50,DU-145 prostate,2.64 µM
same,TGI,DU-145 prostate,6.99 µM
same,GI50,KM12 colon,2.73 µM
same,TGI,KM12 colon,8.29 µM
same,GI50,SK-OV-3 ovarian,11.8 µM
same,TGI,SK-OV-3 ovarian,24.1 µM
same,GI50,NCI-H226 lung,10.5 µM
same,TGI,NCI-H226 lung,24.9 µM
same,GI50,SK-MEL-28 melanoma,1.81 µM
same,TGI,SK-MEL-28 melanoma,3.43 µM
same,GI50,SF-539 CNS,3.33 µM
same,TGI,SF-539 CNS,12.2 µM
same,GI50,A549 NSCLC,1.75 µM
same,TGI,A549 NSCLC,3.52 µM
same,GI50,U251 CNS,1.71 µM
same,TGI,U251 CNS,3.17 µM
same,GI50,MOLT-4 leukemia,1.97 µM
same,TGI,MOLT-4 leukemia,4.29 µM
same,GI50,SN12C renal,2.07 µM
same,TGI,SN12C renal,4.97 µM
same,GI50,NCI-H522 lung,1.72 µM
same,TGI,NCI-H522 lung,3.47 µM
same,GI50,CCRF-CEM leukemia,2.36 µM
same,TGI,CCRF-CEM leukemia,6.17 µM
same,GI50,SF-268 CNS,5.56 µM
same,TGI,SF-268 CNS,21.1 µM
same,GI50,NCI/ADR-RES ovarian,1.87 µM
same,TGI,NCI/ADR-RES ovarian,3.7 µM
same,GI50,MALME-3M melanoma,1.86 µM
same,TGI,MALME-3M melanoma,4.16 µM
same,GI50,HT29 colon,1.78 µM
same,TGI,HT29 colon,3.36 µM
same,GI50,SNB-75 CNS,11.2 µM
same,TGI,SNB-75 CNS,24.7 µM
same,GI50,MDA-MB-435,1.89 µM
same,TGI,MDA-MB-435,3.53 µM
same,GI50,OVCAR-3 ovarian,2.05 µM
same,TGI,OVCAR-3 ovarian,4.67 µM
same,GI50,HCT-116 colon,1.73 µM
same,TGI,HCT-116 colon,3.17 µM
same,GI50,SF-295 CNS,5.56 µM
same,TGI,SF-295 CNS,18.2 µM
same,GI50,COLO 205 colon,1.78 µM
same,TGI,COLO 205 colon,3.49 µM
same,GI50,IGROV1 ovarian,3.53 µM
same,TGI,IGROV1 ovarian,15.6 µM
same,GI50,HCT-15 colon,1.75 µM
same,TGI,HCT-15 colon,3.17 µM
same,GI50,LOX IMVI melanoma,0.241 µM
same,TGI,LOX IMVI melanoma,1.77 µM
same,GI50,EKVX NSCLC,3.07 µM
same,TGI,EKVX NSCLC,11.8 µM
same,GI50,OVCAR-5 ovarian,4.87 µM
same,TGI,OVCAR-5 ovarian,17.6 µM
same,GI50,MCF7 breast,1.19 µM
same,TGI,MCF7 breast,2.51 µM
same,GI50,HCC-2998 colon,1.66 µM
same,TGI,HCC-2998 colon,3.09 µM
same,GI50,HL-60(TB) leukemia,1.87 µM
same,TGI,HL-60(TB) leukemia,3.99 µM
same,GI50,SR leukemia,2.46 µM
same,TGI,SR leukemia,6.23 µM
same,GI50,PC-3 prostate,1.83 µM
same,TGI,PC-3 prostate,4.84 µM
same,GI50,UACC-257 melanoma,3.29 µM
same,TGI,UACC-257 melanoma,11.9 µM
same,GI50,HS 578T breast,11 µM
same,TGI,HS 578T breast,30.8 µM
same,GI50,786-0 renal,1.64 µM
same,TGI,786-0 renal,3.2 µM
same,GI50,MDA-MB-231 breast,1.82 µM
same,TGI,MDA-MB-231 breast,3.63 µM
same,GI50,SW-620 colon,1.68 µM
same,TGI,SW-620 colon,3.15 µM
same,GI50,T-47D breast,5.11 µM
same,TGI,T-47D breast,20.2 µM
same,GI50,BT-549 breast,13.3 µM
same,TGI,BT-549 breast,26.5 µM
same,GI50,CAKI-1 renal,2.84 µM
same,TGI,CAKI-1 renal,14.4 µM
same,GI50,TK-10 renal,11.4 µM
same,TGI,TK-10 renal,24.2 µM
same,GI50,OVCAR-8 ovarian,1.75 µM
same,TGI,OVCAR-8 ovarian,3.39 µM
same,GI50,UACC-62 melanoma,1.81 µM
same,TGI,UACC-62 melanoma,3.62 µM
same,GI50,SNB-19 CNS,5.87 µM
same,TGI,SNB-19 CNS,19.9 µM
